In US10336792B2, “Antimicrobial peptide dendrimers” (priority 2014, dated 2019):
Converted amounts (≈) assume the structure as drawn. Positions of bridges follow the written chain, without caps; N, C: chain ends. Non-standard residues stand in square brackets, D forms with d. Residues, ends and D or L forms follow the SMILES beside them. Groups on a side chain read outwards from the residue. Chains are numbered I, II in the order given. *: point of attachment. Dab = NCC[C@H](N)C(=O)O; Hexanoyl = CCCCCC(=O)*

Legend:
Type in all cases: cell-based
[1] = system: Pseudomonas aeruginosa (strain PA01); test: microbe, parasite or virus in culture; details: strain
How it was run: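 P. aeruginosa PAO1 grown overnight in LB, diluted to OD600 0.001 and mixed with ⅔-step peptide dilutions, then incubated at 37 °C for 18–24 h. After MTT staining, the lowest concentration with no visible growth was read by eye as the MIC.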

[2] = system: Bacillus subtilis (strain BR151); details: strain BR151
Description: (§1) Antimicrobial activity was assayed against Bacillus subtilis (strain BR151), Escherichia coli (strain DH5α) and Pseudomonas aeruginosa (strain PA01). Microdilution broth method was used to determine the minimal inhibitory concentration (MIC). A colony of bacteria was grown in LB-medium overnight at 37° C. The concentration was quantified by measuring absorbance at 600 nm and diluted to OD600=0.1 (1×10^8 CFU/mL). The samples were prepared as stock solutions of 1 mg mL^−1 in H2O and diluted serially by ⅔ in nutrient LB in a 96-well microtiterplate (Cornstar, polypropylene, untreated). The sample solutions (50 μL) were mixed with the diluted bacterial suspension with an OD600 nm of 0.001 (50 μL). […] The plates were incubated at 37° C. until satisfactory growth (18-24 h). For each test, two columns of the plate were kept for sterility control (SC, broth only) and growth control (GC, broth with bacterial inoculums, no antibiotics). 10 μL of a solution of MTT (0.1% in H2O) was added to each well. The minimal inhibitory concentration (MIC) was defined as the lowest concentration of the antimicrobial substance (peptide dendrimer) that inhibited visible growth of the tested bacteria (yellow) with the unaided eye. For microbiological study the linear peptide LysTyrLysLysAlaLeuLysLysLeuAlaLysLeuLeu (SEQ ID No. 1) was used as reference.
(§2) The AMPD library was tested for their antimicrobial activity against B. subtilis BR151, a Gram-positive bacterium and E. coli DH5α, another Gram-negative bacterium, to cover a broader spectrum of different bacteria. […] Therefore no explicit SAR can be established, but clearly the hydrophobic amino acids Ala and Tyr seem to have a significant influence in reducing activity.

[3] = system: Escherichia coli (strain DH5α); details: DH5α
Description: as §1, §2

SMILES	MIC P. aeruginosa PAO1 [1] [µg/mL]	MIC B. subtilis BR151 [2] [µg/mL]	MIC E. coli DH5α [3] [µg/mL]
NCCCC[C@H](NC(=O)[C@H](CCCCNC(=O)[C@H](Cc1ccccc1)NC(=O)[C@H](CCCCN)NC(=O)[C@H](CCCCNC(=O)[C@H](Cc1ccccc1)NC(=O)[C@H](CCCCN)NC(=O)[C@H](CCCCNC(=O)[C@H](Cc1ccccc1)NC(=O)[C@@H](N)CCCCN)NC(=O)[C@H](Cc1ccccc1)NC(=O)[C@@H](N)CCCCN)NC(=O)[C@H](Cc1ccccc1)NC(=O)[C@H](CCCCN)NC(=O)[C@H](CCCCNC(=O)[C@H](Cc1ccccc1)NC(=O)[C@@H](N)CCCCN)NC(=O)[C@H](Cc1ccccc1)NC(=O)[C@@H](N)CCCCN)NC(=O)[C@H](Cc1ccccc1)NC(=O)[C@H](CCCCN)NC(=O)[C@H](CCCCNC(=O)[C@H](Cc1ccccc1)NC(=O)[C@H](CCCCN)NC(=O)[C@H](CCCCNC(=O)[C@H](Cc1ccccc1)NC(=O)[C@@H](N)CCCCN)NC(=O)[C@H](Cc1ccccc1)NC(=O)[C@@H](N)CCCCN)NC(=O)[C@H](Cc1ccccc1)NC(=O)[C@H](CCCCN)NC(=O)[C@H](CCCCNC(=O)[C@H](Cc1ccccc1)NC(=O)[C@@H](N)CCCCN)NC(=O)[C@H](Cc1ccccc1)NC(=O)[C@@H](N)CCCCN)C(=O)N[C@@H](Cc1ccccc1)C(N)=O [MSt-174, (KF)8(KKF)4(KKF)2(KKF)] (I: H-KFK([Phe-Lys])KFKKFKKF-NH2 / II: H-KFK([Phe-Lys])KFKKF / III: H-KFK([Phe-Lys])KF / IV: H-KFK([Phe-Lys])KF; amide I:6-IV:C, I:9-II:C, II:6-III:C)	6 (≈ 1.19 µM)	2 (≈ 0.396 µM)	7 (≈ 1.39 µM)
CC(C)C[C@H](NC(=O)[C@H](CCN)NC(=O)[C@H](CCCCNC(=O)[C@H](CC(C)C)NC(=O)[C@@H](N)CCN)NC(=O)[C@H](CC(C)C)NC(=O)[C@@H](N)CCN)C(=O)NCCCC[C@H](NC(=O)[C@H](CC(C)C)NC(=O)[C@H](CCN)NC(=O)[C@H](CCCCNC(=O)[C@H](CC(C)C)NC(=O)[C@@H](N)CCN)NC(=O)[C@H](CC(C)C)NC(=O)[C@@H](N)CCN)C(=O)N[C@@H](CCN)C(=O)N[C@@H](Cc1c[nH]c2ccccc12)C(=O)NCCCC[C@H](NC(=O)[C@H](Cc1c[nH]c2ccccc12)NC(=O)[C@H](CCN)NC(=O)[C@H](CCCCNC(=O)[C@H](CC(C)C)NC(=O)[C@H](CCN)NC(=O)[C@H](CCCCNC(=O)[C@H](CC(C)C)NC(=O)[C@@H](N)CCN)NC(=O)[C@H](CC(C)C)NC(=O)[C@@H](N)CCN)NC(=O)[C@H](CC(C)C)NC(=O)[C@H](CCN)NC(=O)[C@H](CCCCNC(=O)[C@H](CC(C)C)NC(=O)[C@@H](N)CCN)NC(=O)[C@H](CC(C)C)NC(=O)[C@@H](N)CCN)C(=O)N[C@@H](CCN)C(=O)N[C@@H](Cc1c[nH]c2ccccc12)C(N)=O [MSt-203, (DabL)8(KDabL)4(KDabW)2(KDabW)] (I: H-[Dab]LK([Leu-Dab])[Dab]LK[Dab]WK[Dab]W-NH2 / II: H-[Dab]LK([Leu-Dab])[Dab]LK[Dab]W / III: H-[Dab]LK([Leu-Dab])[Dab]L / IV: H-[Dab]LK([Leu-Dab])[Dab]L; amide I:6-IV:C, I:9-II:C, II:6-III:C; N-terminus assumed)	2 (≈ 0.462 µM)	2 (≈ 0.462 µM)	2 (≈ 0.462 µM)
CCCCCC(=O)NCCCC[C@H](NC(=O)[C@H](CC(C)C)NC(=O)[C@H](CCCCN)NC(=O)[C@H](CCCCNC(=O)[C@H](CC(C)C)NC(=O)[C@H](CCCCN)NC(=O)[C@H](CCCCNC(=O)[C@H](CC(C)C)NC(=O)[C@H](CCCCN)NC(=O)[C@H](CCCCNC(=O)[C@H](CC(C)C)NC(=O)[C@@H](N)CCCCN)NC(=O)[C@H](CC(C)C)NC(=O)[C@@H](N)CCCCN)NC(=O)[C@H](CC(C)C)NC(=O)[C@H](CCCCN)NC(=O)[C@H](CCCCNC(=O)[C@H](CC(C)C)NC(=O)[C@@H](N)CCCCN)NC(=O)[C@H](CC(C)C)NC(=O)[C@@H](N)CCCCN)NC(=O)[C@H](CC(C)C)NC(=O)[C@H](CCCCN)NC(=O)[C@H](CCCCNC(=O)[C@H](CC(C)C)NC(=O)[C@H](CCCCN)NC(=O)[C@H](CCCCNC(=O)[C@H](CC(C)C)NC(=O)[C@@H](N)CCCCN)NC(=O)[C@H](CC(C)C)NC(=O)[C@@H](N)CCCCN)NC(=O)[C@H](CC(C)C)NC(=O)[C@H](CCCCN)NC(=O)[C@H](CCCCNC(=O)[C@H](CC(C)C)NC(=O)[C@@H](N)CCCCN)NC(=O)[C@H](CC(C)C)NC(=O)[C@@H](N)CCCCN)C(N)=O [MSt-264, (KL)8(KKL)4(KKL)2(KKLKC6)] (I: H-KLK([Leu-Lys])KLKKLKKLK(Hexanoyl)-NH2 / II: H-KLK([Leu-Lys])KLKKL / III: H-KLK([Leu-Lys])KL / IV: H-KLK([Leu-Lys])KL; amide I:6-IV:C, I:9-II:C, II:6-III:C)	1 (≈ 0.21 µM)	5 (≈ 1.05 µM)	1 (≈ 0.21 µM)
CC(C)C[C@H](NC(=O)[C@H](CC(C)C)NC(=O)[C@H](CCCCNC(=O)[C@H](CCCCN)NC(=O)[C@H](CCCCN)NC(=O)[C@H](CCCCNC(=O)[C@H](CC(C)C)NC(=O)[C@@H](N)CC(C)C)NC(=O)[C@H](CC(C)C)NC(=O)[C@@H](N)CC(C)C)NC(=O)[C@H](CCCCN)NC(=O)[C@H](CCCCN)NC(=O)[C@H](CCCCNC(=O)[C@H](CC(C)C)NC(=O)[C@@H](N)CC(C)C)NC(=O)[C@H](CC(C)C)NC(=O)[C@@H](N)CC(C)C)C(=O)NCCCC[C@H](NC(=O)[C@H](CC(C)C)NC(=O)[C@H](CC(C)C)NC(=O)[C@H](CCCCNC(=O)[C@H](CCCCN)NC(=O)[C@H](CCCCN)NC(=O)[C@H](CCCCNC(=O)[C@H](CC(C)C)NC(=O)[C@@H](N)CC(C)C)NC(=O)[C@H](CC(C)C)NC(=O)[C@@H](N)CC(C)C)NC(=O)[C@H](CCCCN)NC(=O)[C@H](CCCCN)NC(=O)[C@H](CCCCNC(=O)[C@H](CC(C)C)NC(=O)[C@@H](N)CC(C)C)NC(=O)[C@H](CC(C)C)NC(=O)[C@@H](N)CC(C)C)C(=O)N[C@@H](CCCCN)C(=O)N[C@@H](CCCCN)C(N)=O [MSt-180, (LL)8(KKK)4(KLL)2(KKK)] (I: H-LLK([Leu-Leu])KKKLLKKK-NH2 / II: H-LLK([Leu-Leu])KKKLL / III: H-LLK([Leu-Leu])KK / IV: H-LLK([Leu-Leu])KK; amide I:6-IV:C, I:9-II:C, II:6-III:C)	12 (≈ 2.69 µM)	3 (≈ 0.673 µM)	>62

The next lines start with the values.

MIC P. aeruginosa PAO1 [1] [µg/mL]	MIC B. subtilis BR151 [2] [µg/mL]	MIC E. coli DH5α [3] [µg/mL]	SMILES
1 (≈ 0.432 µM)	20 (≈ 8.63 µM)	2 (≈ 0.863 µM)	CCCCCC(=O)NCCCC[C@H](NC(=O)[C@H](CC(C)C)NC(=O)[C@H](CCCCN)NC(=O)[C@H](CCCCNC(=O)[C@H](CC(C)C)NC(=O)[C@H](CCCCN)NC(=O)[C@H](CCCCNC(=O)[C@H](CC(C)C)NC(=O)[C@@H](N)CCCCN)NC(=O)[C@H](CC(C)C)NC(=O)[C@@H](N)CCCCN)NC(=O)[C@H](CC(C)C)NC(=O)[C@H](CCCCN)NC(=O)[C@H](CCCCNC(=O)[C@H](CC(C)C)NC(=O)[C@@H](N)CCCCN)NC(=O)[C@H](CC(C)C)NC(=O)[C@@H](N)CCCCN)C(N)=O [MSt-260, (KL)4(KKL)2(KKLKC6)] (I: H-KLK([Leu-Lys])KLKKLK(Hexanoyl)-NH2 / II: H-KLK([Leu-Lys])KL; amide I:6-II:C)
2 (≈ 0.805 µM)	1 (≈ 0.403 µM)	1 (≈ 0.403 µM)	CCCCCC(=O)N[C@@H](CCCCN)C(=O)N[C@@H](CC(C)C)C(=O)NCCCC[C@H](NC(=O)[C@H](CC(C)C)NC(=O)[C@H](CCCCN)NC(=O)CCCCC)C(=O)N[C@@H](CCCCN)C(=O)N[C@@H](CC(C)C)C(=O)NCCCC[C@H](NC(=O)[C@H](CC(C)C)NC(=O)[C@H](CCCCN)NC(=O)[C@H](CCCCNC(=O)[C@H](CC(C)C)NC(=O)[C@H](CCCCN)NC(=O)CCCCC)NC(=O)[C@H](CC(C)C)NC(=O)[C@H](CCCCN)NC(=O)CCCCC)C(=O)N[C@@H](CCCCN)C(=O)N[C@@H](CC(C)C)C(N)=O [MSt-290, (C6KL)4(KKL)2(KKL)] (I: Hexanoyl-KLK([Leu-Lys-Hexanoyl])KLKKL-NH2 / II: Hexanoyl-KLK([Leu-Lys-Hexanoyl])KL; amide I:6-II:C)
